Where no end group is shown, it is not given here.
How the values were obtained:
[1] = tested on: Staphylococcus aureus NCTC 12981; assay: microbe, parasite or virus in culture; type: cell-based; conditions: for MIC: Staphylococcus aureus, NCTC12981, compound alone, broth microdilution, Iso-Sensitest Broth, range 128–0 μg/mL, 5 × 10^5 CFU/mL, visual read-out, duplicate, read-out: MIC, S. aureus NCTC 12981
Experimental: (§1) The Minimum Inhibitory Concentrations (MIC) of compounds 1–27 were evaluated through a broth microdilution assay against susceptible strains of Escherichia coli (Gram–negative) and Staphylococcus aureus (Gram-positive).
(§2) The antibacterial activity of the peptides and peptide/antibiotic combinations were tested by the broth microdilution assay according to [24]. Escherichia coli NCTC 10,418 and Staphylococcus aureus NCTC 12,981 were obtained from the National Collection of Type Cultures, UK. Escherichia coli G69 was a clinical isolate as previously described.
(§3) Briefly, all bacterial strains were cultured on nutrient agar (Sigma-Aldrich, Gillingham, UK) plates and incubated for 24 h at 37 °C prior to MIC determination. In addition, known quantities of each test sample were dissolved in DMSO and then diluted in ISB (Iso- Sensitest Broth, Oxoid, Basingstoke, UK) to give a range concentration of 128–0 μg/mL, unless stated differently. […] Finally, the overnight cultures of each of the tested strains were suspended to an inoculum density of approximately 1.0 × 10^8 CFU/mL in phosphate buffered saline (PBS), consisting of 137 mM NaCl, 3 mM KCl, 8 mM Na2HPO4, and […] (Oxoid, Basingstoke, UK). The cell suspensions were standardized by adjusting the optical density to 0.1 at 600 nm (Thermo Scientific UV-Vis Spectrophotometer, Abingdon, UK) before being diluted 1:100 in ISB prior to inoculation
(§4) The assays were performed by microdilution using 96-well microtiter plates with a final inoculum of 5 × 10^5 CFU/mL and each sample was tested in duplicate in at least two independent experiments in order to confirm the reliability of the data. Results were determined by visual inspection of the wells and the presence of an evident opaque medium or white pellets were indicative of bacterial growth. The MIC values were recorded as the lowest concentration at which no bacterial growth was detected.
(§5) Table S4. Minimum inhibitory concentration (MIC) of synthesised peptides and of reference antibiotics
(§6) novobiocin and norfloxacin.

[2] = tested on: Escherichia coli NCTC 10418; assay: microbe, parasite or virus in culture; type: cell-based; conditions: for MIC: Escherichia coli, NCTC10418, compound alone, broth microdilution, Iso-Sensitest Broth, range 128–0 μg/mL, 5 × 10^5 CFU/mL, visual read-out, duplicate, read-out: MIC, E. coli NCTC 10418
Experimental: as §1, §2, §3, §4, §5, §6

[3] = tested on: susceptible E. coli 10418; assay: Norfloxacin potentiation assay (MIC of norfloxacin with fixed concentration of peptide or PAβN); type: cell-based, Escherichia coli; conditions: broth microdilution, duplicate; for MIC of norfloxacin, E. coli 10418, +128 μg/mL of peptide: fixed 128 μg/mL peptide
Experimental: (§7) In order to gather more evidence on the potential mechanisms of action, the effects of the peptides in combination with the quinolone antibiotic norfloxacin were determined. Norfloxacin is active against Gram-negative bacteria, generally achieving entry via porin channels, but is also able to enter the bacterial cell via the membrane in porin-deficient mutants. Therefore, any membrane permeability mechanism would not be expected to have a significant effect on improving the activity of norfloxacin in porin-competent strains. This is indeed what was observed (Table S5), which added weight to our hypothesis that our very short peptides may be acting as membrane permeability enhancers for novobiocin.
as §2
as §3, with “inoculation […]” for “inoculation”
as §4, with “detected. […]” for “detected.”
(§8) potentiating novobiocin. Assays were performed at fixed concentration of 128 μg/mL against susceptible E. coli 10418 and multidrug resistant clinical isolate E. coli G69. Potentiation assay for norfloxacin was also performed in presence of 64 μg/mL of RND efflux pump inhibitor PAβN. All tests were repeated in […]
(§9) Compound Sequence MIC of norfloxacin (μg/mL) […]
(§10) inhibitor PaβN but no potentiation was observed, so the assay was not repeated at lower concentrations.

[4] = tested on: multidrug resistant clinical isolate E. coli G69; assay: as above; type: cell-based, Escherichia coli; conditions: broth microdilution, duplicate; for MIC of norfloxacin, E. coli G69, +128 μg/mL of peptide: fixed 128 μg/mL peptide
Experimental: as §7, §2
as §3, with “inoculation […]” for “inoculation”
as §4, with “detected. […]” for “detected.”
as §8, §9, §10

[5] = tested on: susceptible E. coli NCTC 10418; assay: Novobiocin potentiation assay (MIC of novobiocin with fixed concentration of peptide or PAβN); type: cell-based, Escherichia coli; parameters: key to MIC of Novobiocin, E. coli NCTC 10418, +128 μg/mL added peptide / MIC of Novobiocin, E. coli NCTC 10418, +32 μg/mL added peptide: Non potentiating (NP) indicated no reduction in the MIC of novobiocin was observed; conditions: for MIC of Novobiocin, E. coli NCTC 10418, +32 μg/mL added peptide / MIC of Novobiocin, E. coli NCTC 10418, +128 μg/mL added peptide: Iso-Sensitest Broth, 5 × 10^5 CFU/mL, visual read-out; for MIC of Novobiocin, E. coli NCTC 10418, +32 μg/mL added peptide: fixed 32 μg/mL peptide; for MIC of Novobiocin, E. coli NCTC 10418, +128 μg/mL added peptide: fixed 128 μg/mL peptide
Experimental: (§11) The peptides were also tested in combination with antibiotics novobiocin and norfloxacin. Novobiocin has low efficacy against Gram-negative bacteria due to its hydrophobicity, giving limited cell permeability.
as §2, §3, §4

[6] = tested on: multi-drug resistant clinical isolate E. coli G69; assay: as above; type: cell-based, Escherichia coli; parameters: key to MIC of Novobiocin, E. coli G69, +32 μg/mL added peptide / MIC of Novobiocin, E. coli G69, +128 μg/mL added peptide: Non potentiating (NP) indicated no reduction in the MIC of novobiocin was observed; conditions: for MIC of Novobiocin, E. coli G69, +32 μg/mL added peptide / MIC of Novobiocin, E. coli G69, +128 μg/mL added peptide: Iso-Sensitest Broth, 5 × 10^5 CFU/mL, visual read-out; for MIC of Novobiocin, E. coli G69, +32 μg/mL added peptide: fixed 32 μg/mL peptide; for MIC of Novobiocin, E. coli G69, +128 μg/mL added peptide: fixed 128 μg/mL peptide
Experimental: as §11, §2, §3, §4

CCn1cc(C(=O)O)c(=O)c2cc(F)c(N3CCNCC3)cc21 [Norfloxacin, reference compound]
MIC [1]: 2 µg/mL
MIC [2]: 0.062 µg/mL
MIC ([3]; Escherichia coli, E.COLI10418, norfloxacin alone): 0.062 µg/mL
MIC ([4]; Escherichia coli, norfloxacin alone): > 128 µg/mL

CO[C@@H]1[C@@H](OC(N)=O)[C@@H](O)[C@H](Oc2ccc3c(O)c(NC(=O)c4ccc(O)c(CC=C(C)C)c4)c(=O)oc3c2C)OC1(C)C [Novobiocin]
MIC ([5]; Escherichia coli, NCTC10418, novobiocin alone, no peptide, broth microdilution, duplicate): 32 µg/mL
MIC ([6]; Escherichia coli, novobiocin alone, no peptide, broth microdilution, duplicate): > 128 µg/mL
MIC [1]: 4 µg/mL
MIC [2]: 32 µg/mL

WRWRW-NH2 [Compound 6]
MIC, S. aureus NCTC 12981 ([1]; NCTC 12981, 24 h): 64 µg/mL
MIC, E. coli NCTC 10418 ([2]; NCTC 10418, 24 h): 64 µg/mL

RWRW [Compound 5, short cationic peptide RWRW, amidated at the C-terminus]
MIC of Novobiocin, E. coli NCTC 10418, +32 μg/mL added peptide ([5]; broth microdilution, duplicate): 64 µg/mL
MIC of Novobiocin, E. coli NCTC 10418, +128 μg/mL added peptide ([5]; broth microdilution, duplicate): 2 µg/mL
MIC of Novobiocin, E. coli G69, +32 μg/mL added peptide ([6]; broth microdilution, duplicate): 64 µg/mL
MIC of Novobiocin, E. coli G69, +128 μg/mL added peptide ([6]; broth microdilution, duplicate): 16 µg/mL
MIC of norfloxacin, E. coli 10418, +128 μg/mL of peptide [3]: 0.062 µg/mL
MIC of norfloxacin, E. coli G69, +128 μg/mL of peptide [4]: > 128 µg/mL

RPRRPRLPW-NH2 [Compound 27]
fold reduction in the MIC of novobiocin against the susceptible strain ([5]; E. coli 10418, added peptide): 256 fold
MIC of Novobiocin, E. coli NCTC 10418, +32 μg/mL added peptide ([5]; broth microdilution, duplicate): 8 µg/mL
MIC of Novobiocin, E. coli NCTC 10418, +128 μg/mL added peptide ([5]; broth microdilution, duplicate): 0.125 µg/mL
potentiation of novobiocin against multi-drug resistant E. coli, result in words ([6]; E. coli G69, added peptide): restore the susceptibility
MIC of Novobiocin, E. coli G69, +32 μg/mL added peptide ([6]; broth microdilution, duplicate): 16 µg/mL
MIC of Novobiocin, E. coli G69, +128 μg/mL added peptide ([6]; broth microdilution, duplicate): 16 µg/mL
MIC of norfloxacin, E. coli 10418, +128 μg/mL of peptide [3]: 0.062 µg/mL
MIC of norfloxacin, E. coli G69, +128 μg/mL of peptide [4]: > 128 µg/mL

WKPLPPR [Compound 24, proline-rich cationic peptide WKPLPPR, amidated at the C-terminus]
potentiation of the MIC of novobiocin, result in words ([5]; added peptide, wording covers susceptible and multi-drug resistant strain): no synergism was observed
MIC of Novobiocin, E. coli NCTC 10418, +128 μg/mL added peptide ([5]; broth microdilution, duplicate): NP
MIC of Novobiocin, E. coli G69, +128 μg/mL added peptide ([6]; broth microdilution, duplicate): NP
MIC of norfloxacin, E. coli 10418, +128 μg/mL of peptide [3]: 0.062 µg/mL
MIC of norfloxacin, E. coli G69, +128 μg/mL of peptide [4]: > 128 µg/mL

WRRQRW [Compound 20, short cationic peptide WRRQRW, C-terminal amide; commercial sample from ThermoFisher]
MIC of Novobiocin, E. coli NCTC 10418, +32 μg/mL added peptide ([5]; broth microdilution, duplicate): 16 µg/mL
MIC of Novobiocin, E. coli NCTC 10418, +128 μg/mL added peptide ([5]; broth microdilution, duplicate): 4 µg/mL
MIC of Novobiocin, E. coli G69, +32 μg/mL added peptide ([6]; broth microdilution, duplicate): NP
MIC of Novobiocin, E. coli G69, +128 μg/mL added peptide ([6]; broth microdilution, duplicate): 32 µg/mL
MIC of norfloxacin, E. coli 10418, +128 μg/mL of peptide [3]: 0.062 µg/mL
MIC of norfloxacin, E. coli G69, +128 μg/mL of peptide [4]: > 128 µg/mL

Source: PMC7730182, “Synthesis and in Silico Modelling of the Potential Dual Mechanistic Activity of Small Cationic Peptides Potentiating the Antibiotic Novobiocin against Susceptible and Multi-Drug Resistant Escherichia coli” (International Journal of Molecular Sciences, 2020)
